Laboratory results published in ChEMBL document CHEMBL1144272, “Generation of a new class of hNK(2) receptor ligands using the 'fragment approach'” (Bioorg Med Chem Lett, 2005).

Target: T1, Substance-K receptor (Homo sapiens, UniProt P21452)
T1 sequence (P21452 whole entry): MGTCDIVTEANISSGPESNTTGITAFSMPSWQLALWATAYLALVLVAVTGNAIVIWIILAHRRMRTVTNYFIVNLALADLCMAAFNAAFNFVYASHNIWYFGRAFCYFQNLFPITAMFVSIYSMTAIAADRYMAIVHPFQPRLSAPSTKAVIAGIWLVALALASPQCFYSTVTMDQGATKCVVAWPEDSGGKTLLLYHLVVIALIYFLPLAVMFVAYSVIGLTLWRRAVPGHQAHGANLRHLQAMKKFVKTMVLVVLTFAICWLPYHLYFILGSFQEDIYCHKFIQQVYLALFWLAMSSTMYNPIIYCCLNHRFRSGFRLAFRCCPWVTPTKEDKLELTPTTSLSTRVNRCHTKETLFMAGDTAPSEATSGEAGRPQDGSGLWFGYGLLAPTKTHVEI
Test: Binding affinity for human tachykinin receptor 2 was measured by using [125I]NKA as radio ligand

| Compound | Ki [nM] |
| --- | --- |
| O=C(NCCCN1CCOCC1)[C@@H](Cc1ccccc1)NC(=O)N1CCN(c2ccccc2)CC1 | > 3000 |
| CC(C)c1ccc(OC(C)(C)C(=O)N[C@@H](Cc2ccccc2)C(=O)NCCCN2CCOCC2)cc1 | > 1000 |
| CN(C(=O)N[C@H](Cc1ccccc1)C(=O)NCCCN1CCOCC1)c1ccc(Oc2ccccc2)cc1 | > 3000 |
| CC(C)(Oc1cccc(-c2ccccc2)c1)C(=O)N[C@H](Cc1ccccc1)C(=O)NCCCN1CCOCC1 | 10000 |
| CN(C(=O)N[C@H](Cc1ccccc1)C(=O)NCCCN1CCOCC1)c1cccc(Oc2ccccc2)c1 | > 3000 |
| O=C(N[C@@H](Cc1ccccc1)C(=O)NCCCN1CCOCC1)C(c1ccccc1)c1ccccc1 | 2000 |
| O=C(Nc1ccc(Sc2ccc(F)cc2)cc1)N[C@@H](Cc1ccccc1)C(=O)NCCCN1CCOCC1 | 130 |
| O=C(Nc1ccccc1)N[C@H](Cc1ccccc1)C(=O)NCCCN1CCOCC1 | > 10000 |
| O=C(NCCCN1CCOCC1)[C@H](Cc1ccccc1)NC(=O)N1CCN(c2ccccc2)CC1 | > 3000 |
| CCc1ccc(Oc2ccc(NC(=O)N[C@@H](Cc3ccccc3)C(=O)NCCCN3CCOCC3)cc2)cc1 | 200 |
| O=C(Nc1ccc(Oc2ccc(F)cc2)cc1)N[C@H](Cc1ccccc1)C(=O)NCCCN1CCOCC1 | > 310 |
| O=C(Nc1ccc(Oc2ccccc2)cc1)N[C@H](Cc1ccccc1)C(=O)NCCCN1CCOCC1 | 500 |
| O=C(NCCCN1CCOCC1)[C@H](Cc1ccccc1)NC(=O)N1CCCC(O)(c2ccccc2)C1 (some centres not stated) | 6300 |
| CC(C)(Nc1ccccc1Oc1ccccc1)C(=O)N[C@@H](Cc1ccccc1)C(=O)NCCCN1CCOCC1 | > 3000 |
| O=C(Nc1ccc(OCc2cccc(Cl)c2)cc1)N[C@@H](Cc1ccccc1)C(=O)NCCCN1CCOCC1 | 320 |
| O=C(N[C@H](Cc1ccccc1)C(=O)NCCCN1CCOCC1)c1ccccc1 | > 10000 |
| CC(C)(Oc1ccc(Cl)cc1)C(=O)N[C@H](Cc1ccccc1)C(=O)NCCCN1CCOCC1 | 600 |
| O=C(Nc1ccc(Sc2ccc(F)cc2)cc1)N[C@H](Cc1ccccc1)C(=O)NCCCN1CCOCC1 | > 200 |
| CC(C)(Oc1ccccc1-c1ccccc1)C(=O)N[C@H](Cc1ccccc1)C(=O)NCCCN1CCOCC1 | 5000 |
| O=C(Nc1ccccc1Oc1ccccc1)N[C@H](Cc1ccccc1)C(=O)NCCCN1CCOCC1 | > 10000 |
| O=C(Nc1ccc(OCc2ccc(C(F)(F)F)cc2)cc1)N[C@H](Cc1ccccc1)C(=O)NCCCN1CCOCC1 | 5000 |
| O=C(NCCCN1CCOCC1)[C@H](Cc1ccccc1)NC(=O)N1CCC(Cc2ccccc2)CC1 | 1600 |
| O=C(Nc1ccc(Oc2cccc(F)c2)cc1)N[C@H](Cc1ccccc1)C(=O)NCCCN1CCOCC1 | > 1000 |

| Compound | Ki [nM] |
| --- | --- |
| CC(C)(Oc1ccc(C(F)(F)F)cc1)C(=O)N[C@@H](Cc1ccccc1)C(=O)NCCCN1CCOCC1 | > 1000 |
| O=C(Nc1ccc(Oc2ccc(C(F)(F)F)cc2)cc1)N[C@@H](Cc1ccccc1)C(=O)NCCCN1CCOCC1 | 250 |
| CC(C)c1cccc(OC(C)(C)C(=O)N[C@@H](Cc2ccccc2)C(=O)NCCCN2CCOCC2)c1 | > 1000 |
| O=C(N[C@H](Cc1ccccc1)C(=O)NCCCN1CCOCC1)C(c1ccccc1)c1ccccc1 | > 10000 |
| CC(C)(Oc1ccc(Cl)cc1)C(=O)N[C@@H](Cc1ccccc1)C(=O)NCCCN1CCOCC1 | 1600 |
| CN(C(=O)N[C@@H](Cc1ccccc1)C(=O)NCCCN1CCOCC1)c1cccc(Oc2cccc(F)c2)c1 | > 1000 |
| COc1ccc(Oc2ccc(NC(=O)N[C@H](Cc3ccccc3)C(=O)NCCCN3CCOCC3)cc2)cc1 | > 1000 |
| CC(C)(Oc1cccc(-c2ccccc2)c1)C(=O)N[C@@H](Cc1ccccc1)C(=O)NCCCN1CCOCC1 | 6300 |
| COc1cc(COc2ccc(NC(=O)N[C@@H](Cc3ccccc3)C(=O)NCCCN3CCOCC3)cc2)cc(OC)c1 | 200 |
| O=C(NCCCN1CCOCC1)[C@H](Cc1ccccc1)NC(=O)N(c1ccccc1)c1ccccc1 | > 3000 |
| CC(C)c1cccc(OC(C)(C)C(=O)N[C@H](Cc2ccccc2)C(=O)NCCCN2CCOCC2)c1 | > 1000 |
| Cc1ccc(COc2ccc(NC(=O)N[C@H](Cc3ccccc3)C(=O)NCCCN3CCOCC3)cc2)cc1 | > 1000 |
| O=C(NCCCN1CCOCC1)[C@@H](Cc1ccccc1)NC(=O)N1CCCC(O)(c2ccccc2)C1 (some centres not stated) | > 10000 |
| O=C(Nc1ccc(Oc2ccc(OC(F)(F)F)cc2)cc1)N[C@H](Cc1ccccc1)C(=O)NCCCN1CCOCC1 | > 1000 |
| CC(C)(Oc1cccc(Cl)c1)C(=O)N[C@H](Cc1ccccc1)C(=O)NCCCN1CCOCC1 | 310 |
| CC(C)c1ccc(Oc2ccc(NC(=O)N[C@H](Cc3ccccc3)C(=O)NCCCN3CCOCC3)cc2)cc1 | 200 |
| CC(C)(Oc1cccc(Cl)c1)C(=O)N[C@@H](Cc1ccccc1)C(=O)NCCCN1CCOCC1 | > 1000 |
| O=C(Nc1ccc(OCc2ccc(C(F)(F)F)cc2)cc1)N[C@@H](Cc1ccccc1)C(=O)NCCCN1CCOCC1 | 790 |
| CC(C)(Oc1ccccc1-c1ccccc1)C(=O)N[C@@H](Cc1ccccc1)C(=O)NCCCN1CCOCC1 | 3100 |
| CC(C)(Oc1ccc(-c2ccccc2)cc1)C(=O)N[C@H](Cc1ccccc1)C(=O)NCCCN1CCOCC1 | 7900 |
| COc1ccc(Oc2ccc(NC(=O)N[C@@H](Cc3ccccc3)C(=O)NCCCN3CCOCC3)cc2)cc1 | 310 |
| CN(C(=O)N[C@H](Cc1ccccc1)C(=O)NCCCN1CCOCC1)c1cccc(Oc2cccc(F)c2)c1 | > 1000 |
| CC(C)c1ccc(Oc2ccc(NC(=O)N[C@@H](Cc3ccccc3)C(=O)NCCCN3CCOCC3)cc2)cc1 | 63 |

Now from value to compound:

| Ki [nM] | Compound |
| --- | --- |
| 7900 | CC(C)(Oc1ccc(-c2ccccc2)cc1)C(=O)N[C@@H](Cc1ccccc1)C(=O)NCCCN1CCOCC1 |
| > 1000 | COc1cc(COc2ccc(NC(=O)N[C@H](Cc3ccccc3)C(=O)NCCCN3CCOCC3)cc2)cc(OC)c1 |
| 790 | Cc1ccc(COc2ccc(NC(=O)N[C@@H](Cc3ccccc3)C(=O)NCCCN3CCOCC3)cc2)cc1 |
| > 1000 | CC(C)c1ccc(OC(C)(C)C(=O)N[C@H](Cc2ccccc2)C(=O)NCCCN2CCOCC2)cc1 |
| 500 | O=C(Nc1ccc(OCc2cc(F)cc(F)c2)cc1)N[C@@H](Cc1ccccc1)C(=O)NCCCN1CCOCC1 |
| > 3000 | CN(C(=O)N[C@@H](Cc1ccccc1)C(=O)NCCCN1CCOCC1)c1ccc(Oc2ccccc2)cc1 |
| > 3000 | CN(C(=O)N[C@@H](Cc1ccccc1)C(=O)NCCCN1CCOCC1)c1cccc(Oc2ccccc2)c1 |
| 50 | CC(C)(C)c1ccc(Oc2ccc(NC(=O)N[C@@H](Cc3ccccc3)C(=O)NCCCN3CCOCC3)cc2)cc1 |
| > 3000 | CC(C)(Nc1ccccc1)C(=O)N[C@H](Cc1ccccc1)C(=O)NCCCN1CCOCC1 |
| 120 | CC(C)(C)c1ccc(Oc2ccc(NC(=O)N[C@H](Cc3ccccc3)C(=O)NCCCN3CCOCC3)cc2)cc1 |
| > 1000 | O=C(Nc1ccc(OCc2cc(F)cc(F)c2)cc1)N[C@H](Cc1ccccc1)C(=O)NCCCN1CCOCC1 |
| 200 | O=C(Nc1ccc(Oc2cccc(F)c2)cc1)N[C@@H](Cc1ccccc1)C(=O)NCCCN1CCOCC1 |
| 16 | O=C(Nc1ccc(Oc2ccc(F)cc2)cc1)N[C@@H](Cc1ccccc1)C(=O)NCCCN1CCOCC1 |
| > 10000 | O=C(N[C@H](Cc1ccccc1)C(=O)NCCCN1CCOCC1)c1cccc(-c2ccccc2)c1 |
| 300 | O=C(Nc1cccc(Oc2ccccc2)c1)N[C@H](Cc1ccccc1)C(=O)NCCCN1CCOCC1 |
| 2000 | O=C(N[C@@H](Cc1ccccc1)C(=O)NCCCN1CCOCC1)c1cccc(-c2ccccc2)c1 |
| 630 | O=C(Nc1ccc(OCc2cccc(Cl)c2)cc1)N[C@H](Cc1ccccc1)C(=O)NCCCN1CCOCC1 |
| > 100 | O=C(Nc1ccc(Oc2ccc(OC(F)(F)F)cc2)cc1)N[C@@H](Cc1ccccc1)C(=O)NCCCN1CCOCC1 |

| Ki [nM] | Compound |
| --- | --- |
| 630 | CCc1ccc(Oc2ccc(NC(=O)N[C@H](Cc3ccccc3)C(=O)NCCCN3CCOCC3)cc2)cc1 |
| > 10000 | O=C(N[C@@H](Cc1ccccc1)C(=O)NCCCN1CCOCC1)c1ccccc1 |
| > 1000 | CC(C)(Oc1ccc(C(F)(F)F)cc1)C(=O)N[C@H](Cc1ccccc1)C(=O)NCCCN1CCOCC1 |
| 2000 | CN(Cc1ccccc1)C(=O)N[C@@H](Cc1ccccc1)C(=O)NCCCN1CCOCC1 |
| 1000 | O=C(Nc1ccc(Oc2ccccc2)cc1)N[C@@H](Cc1ccccc1)C(=O)NCCCN1CCOCC1 |
| 200 | O=C(Nc1cccc(Oc2ccccc2)c1)N[C@@H](Cc1ccccc1)C(=O)NCCCN1CCOCC1 |
| 5000 | O=C(Nc1ccccc1Oc1ccccc1)N[C@@H](Cc1ccccc1)C(=O)NCCCN1CCOCC1 |
| > 3000 | CC(C)(Nc1ccccc1)C(=O)N[C@@H](Cc1ccccc1)C(=O)NCCCN1CCOCC1 |
| 3000 | CN(Cc1ccccc1)C(=O)N[C@H](Cc1ccccc1)C(=O)NCCCN1CCOCC1 |
| 3000 | O=C(N[C@H](Cc1ccccc1)C(=O)NCCCN1CCOCC1)c1ccccc1-c1ccccc1 |
| 2000 | O=C(NCCCN1CCOCC1)[C@@H](Cc1ccccc1)NC(=O)N1CCC(Cc2ccccc2)CC1 |
| > 3000 | O=C(NCCCN1CCOCC1)[C@@H](Cc1ccccc1)NC(=O)N(c1ccccc1)c1ccccc1 |
| > 1000 | O=C(Nc1ccc(Oc2ccc(C(F)(F)F)cc2)cc1)N[C@H](Cc1ccccc1)C(=O)NCCCN1CCOCC1 |
| > 10000 | O=C(N[C@@H](Cc1ccccc1)C(=O)NCCCN1CCOCC1)c1ccccc1-c1ccccc1 |
| > 3000 | CC(C)(Nc1ccccc1Oc1ccccc1)C(=O)N[C@H](Cc1ccccc1)C(=O)NCCCN1CCOCC1 |
| > 10000 | O=C(Nc1ccccc1)N[C@@H](Cc1ccccc1)C(=O)NCCCN1CCOCC1 |
| > 1000 | CC(C)(Oc1ccc(F)cc1)C(=O)N[C@H](Cc1ccccc1)C(=O)NCCCN1CCOCC1 |
| > 1000 | CC(C)(Oc1ccc(F)cc1)C(=O)N[C@@H](Cc1ccccc1)C(=O)NCCCN1CCOCC1 |
